Test results published in US12465065B2, “Method of preparing beverages with enhanced sweetness with cyclamate” (The Coca-Cola Company, priority 2017, dated 2025).
Read-outs that look alike come from different tables or passages of the source.

Key:
[1] = 30 ppm cyclamate in acidic water; one panelist
Procedure: (§1) Ingredients were added to water while stirring until solids were visibly dissolved and the sample was poured into a glass bottle and stored at 4° C.
(§2) Taste tests were carried out with one panelist. Bottles were removed from the refrigerator and about 25 ml of beverage was poured into 4 oz-plastic cups. The panelist was given mineral water to rinse their mouth before tasting and between tasting different samples. Unsalted crackers were also given to eat followed by rinsing the mouth with mineral water before tasting the next sample.
(§3) Initially, the panelist was asked to determine the sweetness of the 30 ppm of cyclamate (Table 1).

[2] = 30 ppm cyclamate in acidic water; one panelist; remark: listed apart in the source
Procedure: as §1, §2, §3
The panelist was asked to compare the taste profile of (i) a sample of 150 ppm rebaudioside M in acidic water and (ii) a sample of 150 ppm rebaudioside M and 30 ppm cyclamate (below the sweetness recognition threshold concentration) in acidic water. The panelist was asked to compare the sweetness and taste profiles of the two samples.

[3] = Taste evaluation, sweetness compared to control sucrose acidic water solutions (Example 1); format: in vivo, human; details: samples with 320 ppm rebaudioside M in acidic water (citric acid); one panelist; controls 8%, 9%, 10% sucrose
Excerpt: The panelist was instructed to sip, evaluate the sweetness, and then spit the sample in cups provided for that purpose.

SMILES | sweetness of cyclamate alone [1] | sweetness of cyclamate alone [2] | sweetness compared to control sucrose acidic water solutions [3] [%]
O=S(=O)([O-])NC1CCCCC1.[Na+] [cyclamate, sodium cyclamate] | not sweet | not sweet | –
C=C1C[C@@]23CC[C@H]4[C@@](C)(CCC[C@@]4(C)C(=O)O[C@@H]4O[C@H](CO)[C@@H](O)[C@H](O[C@@H]5O[C@H](CO)[C@@H](O)[C@H](O)[C@H]5O)[C@H]4O[C@@H]4O[C@H](CO)[C@@H](O)[C@H](O)[C@H]4O)[C@@H]2CC[C@]1(O[C@@H]1O[C@H](CO)[C@@H](O)[C@H](O[C@@H]2O[C@H](CO)[C@@H](O)[C@H](O)[C@H]2O)[C@H]1O[C@@H]1O[C@H](CO)[C@@H](O)[C@H](O)[C@H]1O)C3 [rebaudioside M] | – | – | < 8
